{
  "source": "patent US6251917A",
  "about": "“Benzamidoaldehydes and their use as cysteine protease inhibitors” (BASF Aktiengesellschaft, priority 1996, dated 2001)",
  "biological_target": "T1, Human μ-calpain (Homo sapiens, UniProt P07384)",
  "T1 construct": "Human μ-calpain is isolated from erythrocytes; from tissue; host or cells: human erythrocytes",
  "T1 sequence (P07384 1-714)": "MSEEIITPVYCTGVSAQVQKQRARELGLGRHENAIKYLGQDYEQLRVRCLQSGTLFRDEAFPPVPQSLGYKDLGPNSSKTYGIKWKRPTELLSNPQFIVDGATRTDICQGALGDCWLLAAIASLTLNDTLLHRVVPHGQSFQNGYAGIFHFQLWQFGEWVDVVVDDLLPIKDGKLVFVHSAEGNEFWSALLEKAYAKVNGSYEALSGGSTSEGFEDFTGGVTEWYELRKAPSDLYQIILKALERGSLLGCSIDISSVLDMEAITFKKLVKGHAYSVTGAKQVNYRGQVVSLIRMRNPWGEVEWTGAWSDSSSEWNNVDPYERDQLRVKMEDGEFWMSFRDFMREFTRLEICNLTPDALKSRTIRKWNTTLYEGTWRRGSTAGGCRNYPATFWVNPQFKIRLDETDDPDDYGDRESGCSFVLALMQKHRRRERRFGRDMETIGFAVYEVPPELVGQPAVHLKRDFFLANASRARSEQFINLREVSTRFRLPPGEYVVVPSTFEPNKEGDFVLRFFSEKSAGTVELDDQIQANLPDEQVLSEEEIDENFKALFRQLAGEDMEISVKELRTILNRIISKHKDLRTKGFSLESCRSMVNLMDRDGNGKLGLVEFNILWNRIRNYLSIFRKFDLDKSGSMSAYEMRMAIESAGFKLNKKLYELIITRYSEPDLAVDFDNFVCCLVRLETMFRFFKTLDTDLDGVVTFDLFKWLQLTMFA",
  "T1 sequence (P04632 1-268 partner)": "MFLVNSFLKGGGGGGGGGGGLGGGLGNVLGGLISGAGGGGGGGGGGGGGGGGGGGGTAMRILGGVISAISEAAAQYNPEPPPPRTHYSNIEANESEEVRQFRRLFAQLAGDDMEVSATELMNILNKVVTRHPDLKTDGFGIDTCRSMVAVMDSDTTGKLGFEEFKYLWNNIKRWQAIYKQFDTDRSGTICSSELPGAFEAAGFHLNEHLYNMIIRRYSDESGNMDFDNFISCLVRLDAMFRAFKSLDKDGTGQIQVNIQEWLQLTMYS",
  "assay": "Calpain I and II test (fluorogenic substrate Suc-Leu-Tyr-AMC)",
  "assay_type": "biochemical",
  "protocol": "The inhibitory properties of calpain inhibitors were studied in a buffer containing 50 mM of Tris-HCl, pH 7.5; 0.1 M of NaCl; 1 mM of dithiotreithol; 0.11 mM of CaCl2, using the fluorogenic calpain substrate Suc-Leu-Tyr-AMC (25 mM dissolved in DMSO, Bachem/Switzerland) (Sasaki et al. J. Biol. Chem. 1984, Vol. 259, 12489-12494). Human μ-calpain is isolated from erythrocytes similarly to the methods of Croall and DeMartino (BBA 1984, Vol. 788, 348-355) and Graybill et al. (Bioorg. & Med. Lett. 1995, Vol. 5, 387-392). After several chromatographic steps (DEAE-Sepharose, Phenyl-Sepharose, Superdex 200 and Blue-Sepharose), the enzyme is obtained in a purity of <[sic] 95%, according to SDS-PAGE, Western blot analysis and N-terminal sequencing. The fluorescence of the cleavage product 7-amino-4-methylcoumarin (AMC) is monitored in a Spex-Fluorolog fluorimeter at λex =380 nm an λem =460 nm. Over a measured range of 60 min, the cleavage of the substrate is linear and the autocatalytic activity of calpain is low when the experiments are carried out at 12° C. (see Chatterjee et al. 1996, Bioorg. & Med. Chem. Lett., Vol 6, 1619-1622). […]\nIn a typical experiment, 10 μl of substrate (250 μm final) and then 10 μl of μ-calpain (2 μg/ml final, i.e. 18 nM) are added to a 1 ml cuvette containing buffer. The calpain-mediated cleavage of the substrate is measured for 15 to 20 min. […]",
  "data": [
    {"molecule": "O=C[C@H](Cc1ccccc1)NC(=O)c1ccccc1-c1ccccc1", "note": "[Example 30, (S)-2-Phenyl-N-(3-phenylpropan-1-al-2-yl)benzamide]", "values": [
      {"measurement": "effectiveness compared with N-(1-3-phenylpropan-1-al-2-yl)benzamide", "setting": "comparison with literature compound (M. R. Angelastro et al., J. Med. Chem. 1990, 33, 11-13)", "result": "significantly more effective"},
      {"measurement": "Ki", "setting": "reversible inhibition, 12° C., pH 7.5", "result": "< 500", "unit": "nM"}
    ]}
  ]
}
